Assay [1] deals with Methicillin-resistant Staphylococcus aureus (MRSA) isolates. The assay is described as follows: MIC by broth microdilution (CLSI) against CAN-ICU MRSA isolates. It counts as cell-based. The note with it: Staphylococcus aureus. The text has this:
MRSA isolates (n=193) were obtained as part of the Canadian National Intensive Care Unit (CAN-ICU) Study. 19 medical centers from all regions of Canada with active ICUs participated in the CAN-ICU study included. They were requested to only obtain “clinically significant” specimens from patients with a presumed infectious disease. Surveillance swabs, eye, ear, nose and throat swabs were excluded. Anaerobic organisms and fungal organisms were also excluded.
From September 2005-June 2006 (inclusive), each center collected a maximum of 300 consecutive pathogens isolated from blood, urine, tissue/wound, and respiratory specimens (one pathogen per cultured site per patient) of ICU patients. These isolates were shipped to the reference laboratory (Health Sciences Centre, Winnipeg, Canada) on Amies charcoal swabs, subcultured in appropriate media, and stocked in skim milk at −80° C.
All isolates underwent mecA PCR, as well as molecular characterization (including PVL analysis and fingerprinting), as previously described, to assess whether they were community-associated or healthcare-associated (Christianson et al., J Clin Microbiol. 2007, 45 (6): 1904-11; Mulvey et al., J Clin. Microbiol. 2001, 39(10): 3481-5; Mulvey et al., Emerg Infect Dis. 2005,11(6): 844-50; Oliveira et al., Antimicrob Agents Chemother. 2002, 46(7): 2155-61). The isolates were also subtyped using pulsed-field gel electrophoresis (PFGE) following the Canadian standardized protocol as previously described (Mulvey et al., J Clin Microbiol. 2001, 39(10): 3481-5). Their PFGE fingerprints thus obtained were analyzed with BioNumerics v3.5 (Applied Maths St. Marten-Latem, Belgium) using a position tolerance of 1.0 and an optimization of 1.0. Strain relatedness was determined as previously described (Tenover et al., 1995). The fingerprints of the isolates were compared to the national MRSA fingerprint database and were grouped into one of 10 Canadian epidemic MRSA (CMRSA-1, CMRSA-2, etc) as previously described (Mulvey et al., Emerg Infect Dis. 2005,11(6):844-50).
Compound 1 and other antibiotics were tested for their inhibitory activity against the MRSA isolates using the broth microdilution guidelines as stipulated by the Clinical and Laboratory Standards Institute.
(In general: Broth dilution looks for growth in wells or tubes with falling amounts of substance.)

The subject of assay [2] is Staphylococcus aureus strains (MRSA, hVISA, VISA, VRSA, quinolone-resistant MRSA). The experiment in a line: MIC by agar dilution against Staphylococcal strains (MRSA, hVISA, VISA, VRSA, quinolone-resistant MRSA). In kind it is cell-based. As to the method:
Compound 1 was tested for its inhibitory effect against 26 Methicillin-resistant Staphylococcus aureus (MRSA) strains, 2 hetero-Vancomycin intermediate Staphylococcus aureus (hVISA) strains, 24 Vancomycin-intermediate Staphylococcus aureus (VISA) strains, 5 Vancomycin-resistant Staphylococcus aureus (VRSA) strains, and 31 quinolone-resistant Vancomycin-susceptibale MRSA strains with defined mutations in QRDR. These mutations were determined by sequencing analysis of the QRDR (gyrA, gyrB, grlA, and grlB). Efflux testing was performed by the reserpine method (Brenwald, et al., Antimicrob. Agents Chemother. 1998, 42: 2032-2035).
On the technique in general: Agar dilution tests growth on a series of plates holding different concentrations.

In another assay the test system is H. pylori isolates. The assay is described as follows: MIC by agar dilution against 200 H. pylori isolates (Taiwan). In kind it is cell-based, Helicobacter pylori. The note with it: 200 H. pylori isolates; resistance: amoxicillin MICs≧0.5, clarithromycin ≧1, metronidazole ≧8, ciprofloxacin ≧1, levofloxacin ≧1 μg/mL. As to the method: MICs were determined using the agar dilution methods recommended by the Clinical and Laboratory Standards Institute (CLSI-M100-S18).

Setting [3] is: Staphylococcus aureus, MRSA (26).
The mark [4] stands for this setting: Staphylococcus aureus, Quinolone-resistant MRSA (31).
[5] abbreviates: Staphylococcus aureus, hVISA(2) + VISA (24) + VRSA (5).
[6] abbreviates: Staphylococcus aureus, read-out: MIC Range, MRSA (26).
Where [7] appears, read: Staphylococcus aureus, read-out: MIC Range, Quinolone-resistant MRSA (31).
Where [8] appears, read: hVISA(2) + VISA (24) + VRSA (5).

Values after ≈ are worked out from the molar mass of the structure shown. Where two headings read alike, the source gives them in different places.

As a reminder, the MIC50 is the lowest concentration that inhibits either 50% of growth or 50% of the strains tested, depending on the study. For orientation: MIC90 means the lowest concentration that inhibits either 90% of growth or 90% of the strains tested, depending on the study. Broadly, the MIC is the lowest concentration that inhibits growth of the organism. For the molecule `C[C@@H](O)[C@H]1C(=O)N2C(C(=O)O)=C(S[C@@H]3CN[C@H](C(=O)N(C)C)C3)[C@H](C)[C@H]12` [Meropenem], the MIC50 in assay [1] (MRSA (n = 193), read-out: MIC50) was 16 µg/mL (≈ 41.7 µM). Also, the MIC90 in assay [1] (MRSA (n = 193), read-out: MIC90) was above 32 µg/mL. The MIC in assay [1] (MRSA (n = 193), read-out: MIC Range Max) is above 32 µg/mL; in assay [1] (MRSA (n = 193), read-out: MIC Range Min), 0.25 µg/mL (≈ 0.652 µM).

With `CN(C)c1cc(NC(=O)CNC(C)(C)C)c(O)c2c1C[C@H]1C[C@H]3[C@H](N(C)C)C(O)=C(C(N)=O)C(=O)[C@@]3(O)C(O)=C1C2=O` [Tigecycline], the MIC50 in assay [2] (setting [3]) amounted to 0.25 µg/mL (≈ 0.427 µM); in assay [2] (setting [4]), 0.12 µg/mL (≈ 0.205 µM); in assay [2] (setting [5]) it was 0.25 µg/mL; in assay [1] (MRSA) it was 0.25 µg/mL (≈ 0.427 µM); in assay [1] (MRSA / USA100) it was 0.25 µg/mL (≈ 0.427 µM); in assay [1] (MRSA / USA200), 0.5 µg/mL (≈ 0.854 µM). Besides, the MIC50 in assay [1] (MRSA / USA300), in assay [1] (MRSA / USA400) and in assay [1] (MRSA / USA600) was 0.25 µg/mL (≈ 0.427 µM) in each case. Besides, the MIC90 stood at 0.5 µg/mL (≈ 0.854 µM) in assay [2] (setting [3]); 0.25 µg/mL (≈ 0.427 µM) in assay [2] (setting [4]); 0.5 µg/mL in assay [2] (setting [5]); 0.5 µg/mL (≈ 0.854 µM) in assay [1] (MRSA); 0.25 µg/mL (≈ 0.427 µM) in assay [1] (MRSA / USA100); 0.5 µg/mL (≈ 0.854 µM) in assay [1] (MRSA / USA200). Also, the MIC90 in assay [1] (MRSA / USA300) came to 0.5 µg/mL (≈ 0.854 µM); in assay [1] (MRSA / USA400) it was 0.25 µg/mL (≈ 0.427 µM); in assay [1] (MRSA / USA600), 0.5 µg/mL (≈ 0.854 µM). In addition, the minimal inhibitory concentration (MIC) in assay [2] (setting [6]) was 0.12 to 0.5 µg/mL (≈ 0.205 to 0.854 µM); in assay [2] (setting [7]), 0.12 to 0.5 µg/mL (≈ 0.205 to 0.854 µM); in assay [2] (Staphylococcus aureus, read-out: MIC Range, hVISA(2) + VISA (24) + VRSA (5)), 0.06 to 0.5 µg/mL; in assay [1] (MRSA, read-out: MIC Range Max), 0.5 µg/mL (≈ 0.854 µM); in assay [1] (MRSA, read-out: MIC Range Min), 0.12 µg/mL (≈ 0.205 µM).

For the molecule `CN[C@H](CC(C)C)C(=O)N[C@H]1C(=O)N[C@@H](CC(N)=O)C(=O)N[C@H]2C(=O)N[C@H]3C(=O)N[C@H](C(=O)N[C@H](C(=O)O)c4cc(O)cc(O)c4-c4cc3ccc4O)[C@H](O)c3ccc(c(Cl)c3)Oc3cc2cc(c3O[C@@H]2O[C@H](CO)[C@@H](O)[C@H](O)[C@H]2O[C@H]2C[C@](C)(N)[C@H](O)[C@H](C)O2)Oc2ccc(cc2Cl)[C@H]1O` [Vancomycin], the MIC50 in assay [2] (setting [3]) came out at 1 µg/mL (≈ 0.69 µM); in assay [2] (setting [4]), 1 µg/mL (≈ 0.69 µM); in assay [2] (setting [5]), 4 µg/mL; in assay [1] (MRSA) it was 1 µg/mL (≈ 0.69 µM); in assay [1] (MRSA / USA100) it was 1 µg/mL (≈ 0.69 µM); in assay [1] (MRSA / USA200) it was 0.5 µg/mL (≈ 0.345 µM). The MIC50 in assay [1] (MRSA / USA300) amounted to 0.5 µg/mL (≈ 0.345 µM); in assay [1] (MRSA / USA400) it was 1 µg/mL (≈ 0.69 µM); in assay [1] (MRSA / USA600), 1 µg/mL (≈ 0.69 µM). For the same molecule, the MIC90 in assay [2] (setting [3]) was 1 µg/mL (≈ 0.69 µM); in assay [2] (setting [4]) it was 1 µg/mL (≈ 0.69 µM); in assay [2] (setting [5]) it was 32 µg/mL; in assay [1] (MRSA), 1 µg/mL (≈ 0.69 µM); in assay [1] (MRSA / USA100), 1 µg/mL (≈ 0.69 µM); in assay [1] (MRSA / USA200), 0.5 µg/mL (≈ 0.345 µM). Also, the figures for the MIC90 in assay [1] (MRSA / USA300), in assay [1] (MRSA / USA400) and in assay [1] (MRSA / USA600) were 0.5 µg/mL (≈ 0.345 µM), 1 µg/mL (≈ 0.69 µM) and 1 µg/mL (≈ 0.69 µM), respectively. The minimum inhibitory concentration (MIC) was 0.5 to 1 µg/mL (≈ 0.345 to 0.69 µM) in assay [2] (setting [6]); 0.5 to 2 µg/mL (≈ 0.345 to 1.38 µM) in assay [2] (setting [7]); 1 µg/mL (≈ 0.69 µM) in assay [1] (MRSA, read-out: MIC Range Max); 0.5 µg/mL (≈ 0.345 µM) in assay [1] (MRSA, read-out: MIC Range Min).

As for `CC1(C)S[C@@H]2[C@H](NC(=O)[C@H](N)c3ccc(O)cc3)C(=O)N2[C@H]1C(=O)O` [amoxicillin], in the assay on H. pylori isolates, the “share of isolates resistant” value is 2%.

As to `Cc1ncc([N+](=O)[O-])n1CCO` [metronidazole], the “share of isolates resistant” value with H. pylori isolates came out at 29%.

Turning to Teicoplanin, in assay [2] (MRSA (26)), the MIC50 worked out at 0.5 µg/mL, the MIC90 came to 1 µg/mL and the “MIC Range” value fell in the range of 0.5 to 1 µg/mL. Also, in assay [2] (Quinolone-resistant MRSA (31)), the MIC50 turned out to be 0.5 µg/mL, the MIC90 was 1 µg/mL and the “MIC Range” value fell in the range of 0.25 to 2 µg/mL. In addition, in assay [2] (setting [8]), the MIC50 came out at 8 µg/mL, the MIC90 came to 16 µg/mL and the “MIC Range” value is 1 to 32 µg/mL.
